In brackets after ≈: the same amount, converted by molar mass.

In the first data set the test system is smaller brown planthoppers (Lacdelphax striatellus). Description: Lethal effect on smaller brown planthoppers (Test Example 1). The data set is classed as in vivo. As to conditions: 24 h. How it is done: Lethal effect on smaller brown planthoppers (Lacdelphax striatellus)
Rice plants (15 to 20 cm tall) 15 days after germination, are dipped for 1 minute into each aqueous dilute solution of the present compounds in the form of emulsifiable concentrates, and placed in large glass tubes separately after air-drying. Thereafter, 20 to 30 adult planthoppers are released therein and covered with a wire net. After 24 hours, the number of dead and live planthoppers are observed to calculate LC50. The number of the compounds in Table 1 correspond to those of the compounds mentioned above.
With `Cc1ccc(OC(=O)N(C)[S+]([O-])c2ccc([N+](=O)[O-])cc2)cc1C` (stereo not shown) [Compound 10], the median lethal concentration (LC50) (in general, the concentration lethal to half of the exposed cells or organisms) was 33 µg/mL (≈ 94.7 µM).

On to `Cc1ccc(OC(=O)N(C)[S+]([O-])c2ccc(Cl)cc2)cc1C` (stereo not shown) [Compound 11], for which the median lethal concentration (LC50) was 40 µg/mL (≈ 118 µM).

Still in this data set, the particulars now being: rice plants dipped 1 minute in dilute emulsifiable concentrate; after 24 hours; read-out: LC50.
For the compound `CSC(C)=NOC(=O)N(C)[S+]([O-])c1ccccc1` (stereo not shown) [Compound 15], the LC50 worked out at 123 µg/mL (≈ 430 µM).

In the next data set the test system is smaller brown planthoppers (Laodelphax striatellus). Description: Effect on smaller brown planthoppers in soil treatment (Test Example 2). In kind it is in vivo. As to conditions: 6 % granules, 6 kg./10 ares soil treatment; released after 3 days, observed after 24 hours. How it is done: Effect on smaller brown planthoppers (Laodelphax striatellus) in soil treatment.
Each of 6 % granules of the present compounds is applied in a ratio of 6 kg./10 ares near the root of rice plants grown into the tillering stage a 1/100,000 Wagner's pot. After 3 days, 30 adult planthoppers are released and covered with a wire cage. After 24 hours, the number of dead and live planthoppers are observed to calculate the mortality rate.
Turning to `CCCCCCCCCCCC[S+]([O-])N(C)C(=O)ON=C(C)SC` (stereo not shown) [Compound 14], the Mortality is listed as 90.0%.

A further data set relates to green peach aphids (Myzus persicae). Description: Effect on green peach aphids in soil treatment (Test Example 3). The note with it: 5 % granules, 6 kg./10 ares soil treatment; after 3 days; chinese cabbages. The data set is classed as in vivo. From the text: Effect on green peach aphids (Myzus persicae) in soil treatment.
Many of the aphids are made parasitic on chinese cabbages grown in a pot one month after sowing, and each of 5 % granules of the present compounds is applied in a ratio of 6 kg./10 ares near the root thereof. After 3 days, the number of dead and live aphids are observed to calculate the mortality rate.
On to `CCC[S+]([O-])N(C)C(=O)ON=C(C)SC` (stereo not shown) [Compound 13], for which the Mortality was found to be 96.7%.

Consider `CCCCCCCCCCCC[S+]([O-])N(C)C(=O)ON=C(C)SC` (stereo not shown) [Compound 14], for which the Mortality came out at 76.5%.

On to `CSC(C)=NOC(=O)N(C)[S+]([O-])c1ccccc1` (stereo not shown) [Compound 15], for which the Mortality was 95.9%.

A further data set deals with green rice leafhoppers (Nephotettix cincpiceps). Briefly: Effect on green rice leafhoppers in soil treatment (Test Example 4). The data set is classed as in vivo. As to conditions: 6 % granules, 6 kg./10 ares soil treatment; released after 3 days, observed after 24 hours. How it is done: Effect on green rice leafhoppers (Nephotettix cincpiceps) in soil treatment.
Each of 6 % granules of the present compounds is applied in a ratio of 6 kg./10 ares near the root of rice plants grown into the tillering stage in a 1/100,000 Wagner's pot. After 3 days, 30 adult leafhoppers are released and covered with a wire cage. After 24 hours, the number of dead and live leafhoppers are observed to calculate the mortality rate.
Regarding `Cc1ccc(OC(=O)N(C)[S+]([O-])c2ccc([N+](=O)[O-])cc2)cc1C` (stereo not shown) [Compound 10], the Mortality is 72.2%.

As for `CSC(C)=NOC(=O)N(C)[S+]([O-])c1ccccc1` (stereo not shown) [Compound 15], the Mortality came to 70.0%.

The next data set has as its system rice stem borer (Chilo suppressalis). Briefly: Lethal effect on rice stem borer (Test Example 5). In kind it is in vivo. As to conditions: 1000 fold dilute solution of 50 % emulsifiable concentrate; 4 days after application. The text has this:
Lethal effect on rice stem borer (Chilo suppressalis).
Eggs just before hatching of the rice stem borer are applied in a ratio of 100/pot near the root of rice plants grown into the tillering stage in a 1/100,000 Wagner's pot. After the eggs hatched and the larvae enter into stems of rice plants, a 1000 fold dilute solution of each 50 % emulsifiable concentrate of the present compounds is applied by means of a turn table. The number of dead and live stem borers are observed to calculate the mortality rate 4 days after application.
For the compound `CCC[S+]([O-])N(C)C(=O)ON=C(C)SC` (stereo not shown) [Compound 13], the Mortality was found to be 83.2%.

Compound `CSC(C)=NOC(=O)N(C)[S+]([O-])c1ccccc1` (stereo not shown) [Compound 15] returned a Mortality of 82.3%.

`CCC(=NOC(=O)N(C)[S+]([O-])c1ccccc1)SC` (stereo not shown) [Compound 19] gave a Mortality of 66.7%.

The next data set concerns nematode. Briefly: Effect on nematode (Test Example 6). The data set is classed as in vivo. As to conditions: 500 ppm active ingredient; after 24 hours. How it is done: 0.5 ml. of a nematode-containing aqueous solution separated from food is placed in a test tube with ground stopper containing 0.5 ml. of an aqueous dilute solution of each emulsifiable concentrate of the present compounds. The concentration of the active ingredient in the mixture is adjusted to 500 ppm. After 24 hours, the number of dead and live nematodes are observed microscopically to calculate the mortality rate.
Take `Cc1ccc(OC(=O)N(C)[S+]([O-])c2ccc(Cl)cc2)cc1C` (stereo not shown) [Compound 11]: the Mortality is 75.0%.

For the compound `CCC[S+]([O-])N(C)C(=O)ON=C(C)SC` (stereo not shown) [Compound 13], the Mortality is recorded as 100%.

In turn, `CCCCCCCCCCCC[S+]([O-])N(C)C(=O)ON=C(C)SC` (stereo not shown) [Compound 14] came in with a Mortality of 100%.

As for `CSC(C)=NOC(=O)N(C)[S+]([O-])c1ccccc1` (stereo not shown) [Compound 15], the Mortality stood at 100%.

`CCCSC(C)=NOC(=O)N(C)[S+]([O-])c1ccc(Cl)cc1` (stereo not shown) [Compound 21] came in with a Mortality of 65.0%.

The subject of another data set is tobacco cut worm (Spodoptera litura). Description: Effect on tobacco cut worm (Test Example 7). The data set is classed as in vivo. As to conditions: 1000 fold dilute solution of emulsifiable concentrate; fourth instar larvae; 24 hours. How it is done:
Effect on tobacco cut worm (Spodoptera litura).
A 1000 fold dilute solution of each emulsifiable concentrate of the present compounds is applied by means of a turn table to a potted chinese cabbage 60 days after sowing. After air-drying, fourth instar larvae of the tobacco cut worm are released and the mortality rate after 24 hours and 48 hours is calculated.
For `CCC[S+]([O-])N(C)C(=O)ON=C(C)SC` (stereo not shown) [Compound 13], the “Mortality After 24 hrs.” value worked out at 100%.

`CCCCCCCCCCCC[S+]([O-])N(C)C(=O)ON=C(C)SC` (stereo not shown) [Compound 14]: the “Mortality After 24 hrs.” value stood at 90%.

The data set is the same for the next values; noted with them: 1000 fold dilute solution of emulsifiable concentrate; fourth instar larvae; 48 hours.
As to `CCC[S+]([O-])N(C)C(=O)ON=C(C)SC` (stereo not shown) [Compound 13], the “Mortality After 48 hrs.” value is 100%.

On to `CCCCCCCCCCCC[S+]([O-])N(C)C(=O)ON=C(C)SC` (stereo not shown) [Compound 14], for which the “Mortality After 48 hrs.” value came to 100%.

For another data set, the system named is larvae of northern house mosquito (Culex pipien pallens). Description: Effect on mosquito larvae (Test Example 8). The data set is classed as in vivo.
Conditions: not given
How it is done: Effect on mosquito larvae.
200 ml. of an aqueous solution of each emulsifiable concentrate of the present compounds which is adjusted to the concentration of 1 ppm with pure water are placed in a 300 ml. beaker and 30 larvae of northern house mosquito (Culex pipien pallens) are released therein. the mortality rate is calculated.
Regarding `Cc1ccc(OC(=O)N(C)[S+]([O-])c2ccc(Cl)cc2)cc1C` (stereo not shown) [Compound 11], the mortality – broadly, the percentage killed – at 1 ppm came to 100%.

The data set is the same for the next values; noted with them: 1 ppm aqueous solution of emulsifiable concentrate, 30 larvae, time not stated, read-out: Mortality.
Regarding `CSC(C)=NOC(=O)N(C)[S+]([O-])c1ccccc1` (stereo not shown) [Compound 15], the mortality at 1 ppm worked out at 78.3%.

The next data set has as its system carmine mite (Tetranychus telarius). Description: Acaricidal activity on carmine mite (Test Example 10). The data set is classed as in vivo. The note with it: carmine mites; 1000 fold dilute solution of 40 % wettable powder, 10 ml./pot; after 10 days. How it is done: Acaricidal activity on carmine mite (Tetranychus telarius).
From 10 to 15 female carmine mites are made parasitic, in a ratio of 10 - 15/leaf, on leaves of potted kidney beans is (a leaves stage), 9 days after sowing, and kept at 27°C. For a week in a constant temperature room, then breeding of numerous carmine mites at various growth stages can be observed. At this time, a 1000 fold aqueous dilute solution of each 40 % wettable powder of the present compounds is sprayed by means of a turn table in a ratio of 10 ml./pot. After 10 days, the degree of damage of kidney beans and the degree of breeding of mites are observed and classified into five grades (-, +, […] , +++, ++++ ).
The degree of damage of kidney bean leaves:
-; damage is hardly observed, […]
and the degree of damage in between the two extremes is classified into three grades.
The degree of breeding of carmine mites: -; the number alive is less than 10, ++++; the alive are numerous, and the degree of breeding in between the two extremes is classified into three grades.
Turning to `CSC(C)=NOC(=O)N(C)[S+]([O-])c1ccccc1` (stereo not shown) [Compound 15], the Degree of breeding result is on record as “- (the number alive is less than 10)”.

Staying with this data set, now noted: kidney bean leaves; 1000 fold dilute solution of 40 % wettable powder, 10 ml./pot; after 10 days.
Consider `CSC(C)=NOC(=O)N(C)[S+]([O-])c1ccccc1` (stereo not shown) [Compound 15], for which the Degree of damage entry is “-~+”.

A further data set relates to smaller brown planthoppers (Loadelphax striatellus). Description: Residual effect on smaller brown planthoppers (Test Example 11). In kind it is in vivo. As to conditions: 1000 fold dilute solution of 50 % emulsifiable concentrate; after 1 day. How it is done:
Residual effect on smaller brown planthoppers (Loadelphax striatellus).
From 18 to 23 rice plants are grown into a 3 - 4 leaves stage in each flower pot of 10 cm. in diameter, then a 1000 fold aqueos dilute solution of each 50 % emulsifiable concentrate of the present componds is applied thereto. After air-drying, each pot is covered with a wire cage, and 20 - 30 adult planthoppers are released therein, and after 24 hours the mortality rate is calculated. Furthermore, the planthoppers are released each day to investigate the residual effect of the present compounds.
As for `Cc1ccc(OC(=O)N(C)[S+]([O-])c2ccc([N+](=O)[O-])cc2)cc1C` (stereo not shown) [Compound 10], the “Mortality after 1 day” value stood at 100%.

Take `Cc1ccc(OC(=O)N(C)[S+]([O-])c2ccc(Cl)cc2)cc1C` (stereo not shown) [Compound 11]: the “Mortality after 1 day” value was 100%.

Turning to `CNC(=O)Oc1ccc(C)c(C)c1` [Meobal, 3,4-dimethylphenyl-N-methylcarbamate, reference compound], the “Mortality after 1 day” value was 100%.

The data set is the same for the next values; noted with them: 1000 fold dilute solution of 50 % emulsifiable concentrate; after 4 days (residual effect).
On to `Cc1ccc(OC(=O)N(C)[S+]([O-])c2ccc([N+](=O)[O-])cc2)cc1C` (stereo not shown) [Compound 10], for which the “Mortality after 4 days” value was 50.0%.

As to `Cc1ccc(OC(=O)N(C)[S+]([O-])c2ccc(Cl)cc2)cc1C` (stereo not shown) [Compound 11], the “Mortality after 4 days” value turned out to be 85.0%.

Take `CNC(=O)Oc1ccc(C)c(C)c1` [Meobal, 3,4-dimethylphenyl-N-methylcarbamate, reference compound]: the “Mortality after 4 days” value is on record as 53.2%.

Staying with this data set, now noted: 1000 fold dilute solution of 50 % emulsifiable concentrate; after 7 days (residual effect).
For the compound `Cc1ccc(OC(=O)N(C)[S+]([O-])c2ccc([N+](=O)[O-])cc2)cc1C` (stereo not shown) [Compound 10], the “Mortality after 7 days” value is 23.3%.

For the compound `Cc1ccc(OC(=O)N(C)[S+]([O-])c2ccc(Cl)cc2)cc1C` (stereo not shown) [Compound 11], the “Mortality after 7 days” value was found to be 75.0%.

Consider `CNC(=O)Oc1ccc(C)c(C)c1` [Meobal, 3,4-dimethylphenyl-N-methylcarbamate, reference compound], for which the “Mortality after 7 days” value amounted to 10.0%.
